# From patent US7132524B2, “Plant brassinolide responsive genes and use thereof” (National Agriculture and Bio-oriented Research Organization, priority 2002, dated 2006)
# “Also recorded” adds a separate entry of the source.
# B1: OsBLE1: OsBLE1 cDNA (SEQ ID NO: 1) inserted in antisense direction in binary vector pIG121-Hm under CaMV 35S promoter (nucleic acid, listed as Oryza sativa)
# DNA: AATTCGGCACGAGCGGCGGCGAGAGGAGCGGCGGCGATGGGCGGCGGCGGGCACGGCGGCGGCACGACGTACAAGGGGTACACCATCCCCCACAACAAGCGCTGGCACACCGTCGCCGGCAAGGGCCTCTGCGCCGTCATGTGGTTTTGGGTTTTCTACAGGGCTAAGCAGGACGGTGCTGTTCTCTTGGGCATGCGTCATCCTTGGGATGGTCATGATGATCACTCACATGGTCATGGGCATGAGCATGAGGGATCATCATCAACATCGTCGTCTCACTAAATCAACTGCTTCTTGGCGGCTGAGGGAGACTCGCTGCTTTGGTTGTCGCGATGAAATCCTCGAAGATAATAAAGTTTCACACTATTAATTTTATTAAGATGGGTTCATGTTGTTGGCAACTGTTTAAGGCAAACTGGTTATGTATTTTGCTTTTGAGATAGCCTCCCTCGATGGAAAACCCATGTATGTTGTTGCTTATTAGGCTGTGGACATCCTTTTGGATGTAGAGGCTGGGTTTTTAATCCATTATCTAAAAAAATGTTGTTGCTTCTTCCGATCAAAAAAAAAAAAAAAAAAAAAAAAAAAAAAAAAAAAA
# modifications: antisense orientation in binary vector under 35S promoter; cDNA
# What was measured:
# [1] = system: 1265 rice genes (EST clones); experiment: cDNA microarray analysis of rice seedling leaf blade base after brassinolide treatment; assay type: in vivo, Rice (Nipponbare); conditions: base of leaf blades of rice seedling, 1 μM brassinolide, 48 hours; depending on the concentration
# Experimental: Rice (Nipponbare) was grown at 25° C. and 75% humidity with a 12-hrs day and 12-hrs night under white fluorescent light (about 600 μmol·m^−2sec^−1). Commercially available, high quality brassinolide (BL), gibberellin (GA), and indole-3-acetic acid (IAA) were used for the present invention. The method of Chomczynski and Sacchi (Chomczynski P., Sacchi N., Ana. Biochem., 162: 156–159, 1987) was used to extract RNA for RNA blotting analysis. An mRNA purification kit oligotex-dT-30 (Takara), was used to prepare mRNA for micro-array analysis. A cDNA microarray containing 1265 EST clones was used. RNA was isolated from the base of leaf blades treated with 1 μM brassinolide for 48 hours. Reverse transcription reaction was performed for two hours at 42° C. using 1 μg of mRNA in the presence of 50 μM Cy5 dCTP (Amersham Pharmacia), and then stopped. After heated at 94° C. for 3 min, the resulting mixture was treated with NaOH at 37° C. for 15 min to digest the RNA, and then cDNA was recovered. Fluorescently labeled cDNA probe was purified using a QIA quick PCR purification kit (Qiagen). […] Data were analyzed according to Array Vision (Imaging Research). Total RNA was extracted from the base of leaf blades of rice (Nipponbare) seedling treated with 1 μM brassinolide, and the RNA was analyzed using cDNA microarrays containing 1265 rice genes. […]
# [2] = system: OsBLE1 and OsBLE2 genes; experiment: Northern blotting analysis of OsBLE1 and OsBLE2 expression after plant hormone treatment; assay type: in vivo, Rice (Nipponbare); conditions: for expression of OsBLE1 and OsBLE2 following hormone treatment: leaf sheath and base of leaf blades, FIG. 2B-2C
# Experimental: Rice (Nipponbare) was grown at 25° C. and 75% humidity with a 12-hrs day and 12-hrs night under white fluorescent light (about 600 μmol·m^−2sec^−1). Commercially available, high quality brassinolide (BL), gibberellin (GA), and indole-3-acetic acid (IAA) were used for the present invention. The method of Chomczynski and Sacchi (Chomczynski P., Sacchi N., Ana. Biochem., 162: 156–159, 1987) was used to extract RNA for RNA blotting analysis. An mRNA purification kit oligotex-dT-30 (Takara), was used to prepare mRNA for micro-array analysis. After tissue samples were quickly frozen in liquid nitrogen, about 0.5 g of the frozen tissue was ground into powder in a mortar and pestle. Total RNA was prepared by the method of Chomczynski and Sacchi (Chomczynski P., Sacchi N., Anal. Biochem., 162: 156–159, 1987). Then, mRNA for microarray analysis was purified from the total RNA using oligotexdT kit (Takara). For Northern blot analysis, 20 μg of the total RNA were electrophoresed in a 1.2% agarose gel containing 6% formaldehyde and then transferred to a Hybond™-N^+ nylon membrane. In order to ensure equivalent amount of RNAs were electrophoresed for Northern blotting, the present inventors stained gels with ethidium bromide to compare rRNA quantity. Hybridization was carried out at 42° C. overnight using ULTRAhyb™ (Ambion), and the membrane was washed with 2×SSC and 0.1% SDS at 42° C. for 5 min, and then with 0.1×SSC and 0.1% SDS at 68° C. for 15 min. Nylon membrane was exposed to X-ray film (Kodak). The expression patterns of the 12 genes were analyzed by Northern blotting. The present inventors then found two genes whose expression occurs one to six hours after brassinolide treatment and was increased in the leaf sheath and the base of leaf blades by auxin and brassinolide treatment (FIGS. 2A–2C). The present inventors named these two genes OsBLE1 and OsBLE2.
# [3] = system: Nipponbare rice cultivar; experiment: Growth of rice transformed with antisense cDNA under CaMV 35S promoter; assay type: in vivo; conditions: antisense direction in pIG121-Hm, Agrobacterium EHA101, FIGS. 5B-5C
# Source text: Two different cDNAs were inserted into an expression vector in the antisense direction. The resulting vector was then introduced into Agrobacterium (EHA101). The resulting Agrobacterium was used to transform Nipponbare rice cultivar by the ultrahigh-speed transformation method for monocotyledons (Japanese Patent No. 3141084).
# Both of cDNAs of OsBLE1 and OsBLE2 were modified to have SalI restriction site at their 5′ end and to have XbaI restriction sites at their 3′ ends. The modified cDNAs were then digested with XbaI and SalI and inserted into a binary vector pIG121-Hm (Ohta S., Mita S., Hattori T., Nakamura K., Plant Cell Physiol., 31: 805–813, 1990) at XbaI (5′ end) and SalI (3′ end) sites (in the antisense direction) under the control of cauliflower mosaic virus 35S promoter. The recombinant binary vectors were introduced into Agrobacterium EHA101, and the resulting Agrobacterium was introduced into Nipponbare rice cultivar by ultrahigh-speed transformation method for monocotyledons. […] Therefore, the present inventors have succeeded in dwarfing a transformed plant in which expression of a gene that is induced by addition of a plant hormone, brassinolide, is regulated.
Molecule,expression level of the 12 different genes [1],time after treatment at which expression of OsBLE1 and OsBLE2 occurs / is induced ([2]; FIG. 2A),expression of OsBLE1 and OsBLE2 following hormone treatment [2],growth of stem and leaf of transformed rice compared to controls containing the vector alone [3]
CC(C)[C@H](C)[C@@H](O)[C@H](O)[C@@H](C)[C@H]1CC[C@H]2[C@@H]3COC(=O)[C@H]4C[C@H](O)[C@H](O)C[C@]4(C)[C@H]3CC[C@]12C [brassinolide],markedly increased,two to six; also recorded: one to six,increased,–
"C=C1C[C@]23C[C@@]1(O)CC[C@H]2[C@@]12C=C[C@H](O)[C@@](C)(C(=O)O1)[C@H]2[C@@H]3C(=O)O [GA3, gibberellin]",–,–,increased,–
"O=C(O)Cc1c[nH]c2ccccc12 [IAA, indole-3-acetic acid]",–,–,increased,–
OsBLE2: OsBLE2 cDNA (SEQ ID NO: 3) inserted in antisense direction in binary vector pIG121-Hm under CaMV 35S promoter,–,–,–,suppressed growth of stem and leaf
B1,–,–,–,suppressed growth of stem and leaf
